# Earlier results as cited in patent publication US12648892B2, “Emergency eye wash” (Lebrun Labs LLC, priority 2024, dated 2026).
# Key:
# eye = eye damage classification; cited from earlier work
# [1] = most extreme pH value found for each chemical; includes diluted chemicals; cited from earlier work
Compound,in vivo GHS (eye),pH [1]
CSCCC(NC(C)=O)C(=O)O (racemic) [compound 88],1,–
O=C1C2CC=CCC2C(=O)N1SC(Cl)(Cl)Cl (stereo not shown) [compound 1],1,–
CC(C)(C)CC(C)(C)c1ccc(O)cc1 [compound 2],1,–
CCN(CC)CCCC(C)Nc1c2ccc(Cl)cc2nc2ccc(OC)cc12 (stereo not shown) [compound 3],1,–
O=C([O-])C(=O)[O-].[Na+].[Na+] [compound 4],1,–
CCCCCCCCCCCCCCCC[N+](C)(C)C.[Cl-] [compound 5],1,–
O=C(O)CO [compound 6],1,–
CCCCCCCCCCCCOS(=O)(=O)[O-].[Na+] [compound 7],1,–
CCCCCCCCCCCC(=O)O [compound 8],1,–
CCC[CH2][Sn]([CH2]CCC)([CH2]CCC)[O][Sn]([CH2]CCC)([CH2]CCC)[CH2]CCC [compound 9],1,–
CC(=O)O [compound 11],1,–
O=C([O-])c1ccccc1O.[Na+] [compound 13],1,–
CCCCO [compound 15],1,–
OCc1ccccc1 [compound 16],1,–
CC(O)C(=O)O (stereo not shown) [compound 17],1,–
Nc1cccc(N)c1 [compound 18],1,–
c1ccncc1 [compound 20],1,–
CC(CN1c2ccccc2Sc2ccccc21)N(C)C.Cl (stereo not shown) [compound 21],1,–
CCCCCCCCCCCC[N+](C)(C)CCOc1ccccc1.[Br-] [compound 26],1,–
CCCCCCCCCCCCCCCC[N+](C)(C)C.[Br-] [compound 28],1,–
O=C(O)c1ccccc1 [compound 32],1,–
O=C([O-])c1c(Cl)c(Cl)c(Cl)c(Cl)c1-c1c2cc(Br)c(=O)c(Br)c-2oc2c(Br)c([O-])c(Br)cc12.[Na+].[Na+] [compound 34],1,–
CCCCCCCCCCCCCCCC[n+]1ccccc1.O.[Cl-] [compound 35],1,–
CC(C=O)Cc1ccc(C(C)(C)C)cc1 (stereo not shown) [compound 38],1,–

Compound,in vivo GHS (eye),pH [1]
CCCCCCCCCCCCCCCCCC[N+](C)(C)CCCCCCCCCCCCCCCCCC [compound 39],1,5.5
C=CC(=O)OCCOCCOCCOCCOC(=O)C=C [compound 42],1,5.2
O=C(O)Cc1cccc2ccccc12 [compound 43],1,5.0
CCCCOCCO [compound 46],1,7.0
OC1CCCCC1 [compound 47],1,6.5
C1CCOC1 [compound 48],1,8.0
O=C(O)CCC(=O)C(=O)O [compound 49],1,1.5
Nc1ccc(F)cc1 [compound 50],1,7.4
CC(C)(O)C(=O)O [compound 51],1,1.0
CCO[Si](CCCN)(OCC)OCC [compound 52],1,11.0
CCN(CC)CCO [compound 53],1,11.5
c1c[nH]cn1 [compound 54],1,10.5
CCCCCCCCN [compound 55],1,11.8
[Na+].[OH-] [compound 56],1,14.0
O=C(O)C(Cl)(Cl)Cl [compound 57],1,<1.0
CCCCC(CC)COC(=O)CC(C(=O)OCC(CC)CCCC)S(=O)(=O)[O-].[Na+] (stereo not shown) [compound 58],1,6.5
CCCCCCCCCCCC(=O)[O-].[K+] [compound 59],1,10.5
CCCCCCCCCCCCCCCCCC[N+](C)(C)C [compound 60],1,4.2
CCCCCCCCCCCC[N+](C)(C)[O-] [compound 62],1,9.0
O=C(O)c1ccc(O)cc1O [compound 64],1,3.0
O=S(=O)([O-])O.[Na+] [compound 65],1,<1.0
CCCCCCCC[N+](CCCCCCCC)(CCCCCCCC)CCCCCCCC.[Br-] [compound 66],1,3.9
CC(C)(O)CCC(C)(C)O [compound 68],1,–
OCCCCCCCCCl [compound 69],1,–

Compound,in vivo GHS (eye),pH [1]
CCCCCCCCCCCC[N+](C)(C)CC(O)CS(=O)(=O)[O-] (stereo not shown) [compound 71],1,–
C#CC(C)(O)CC (stereo not shown) [compound 76],1,–
C=CC(=O)OCCOC [compound 79],1,–
O=S(=O)(Cl)c1ccccc1 [compound 80],1,–
C=CC(=O)OCCO [compound 81],1,–
Oc1ccc(Cl)cc1Cc1ccccc1 [compound 82],1,–
CCOC(=O)C(C)(C)O [compound 83],1,–
CCCCCCCCCCCCCCCC[n+]1ccccc1.[Br-] [compound 84],1,–
O=C(OC(C(=O)O)C(OC(=O)c1ccccc1)C(=O)O)c1ccccc1 (stereo not shown) [compound 87],1,–
O=c1[nH]sc2ccccc12 [compound 89],1,–
O=S1(=O)OC(c2cc(Br)c(O)c(Br)c2)(c2cc(Br)c(O)c(Br)c2)c2c(Br)c(Br)c(Br)c(Br)c21 [compound 90],1,–
C[Si](C)(CCCN)O[Si](C)(C)CCCN [compound 91],1,–
Cc1ccccc1NC(=N)NC(=N)N [compound 92],1,–
COC(=O)CS [compound 93],1,–
CCC(C)(C)C(=O)O [compound 94],1,–
CO[Si](CCCNCCN)(OC)OC [compound 95],1,–
CC(C)(C)c1ccc(O)c(O)c1 [compound 96],1,–
Oc1ccc2ccc(O)cc2c1 [compound 99],1,–
Cc1c(O)cccc1O [compound 100],1,–
CCCOC(=O)C(C)O (stereo not shown) [compound 101],1,–
[Na+].c1nc[n-]n1 [compound 105],1,–
N#CSc1ccc(N)c([N+](=O)[O-])c1 [compound 106],1,–
O=C=Nc1ccc(Cl)c(Cl)c1 [compound 107],1,–
CCN(CC)CCC#N [compound 108],1,–
